Molecular target: DCN1 (Homo sapiens (Human), UniProt Q96GG9)
Experiment: TR-FRET binding assay (biotin-DCN1 / Ac-UBE2M12-AlexaFluor488)
Details: mean ± SD (n); read-out: DCN1_TRFRET Mean EC50
Method: • IC50 values were generated using our TR-FRET binding assay and are represented as the mean of three replicates with errors reported as the standard deviation.
The assay cocktail was then incubated for 1 h at room temperature and distributed using a WellMate instrument (Matrix). Compounds to be screened were added to assay plates from DMSO stock solutions by pin transfer using 50SS pins (V&P Scientific). […] All compounds were tested in triplicate or more.

Sequence of DCN1 (Q96GG9 whole entry): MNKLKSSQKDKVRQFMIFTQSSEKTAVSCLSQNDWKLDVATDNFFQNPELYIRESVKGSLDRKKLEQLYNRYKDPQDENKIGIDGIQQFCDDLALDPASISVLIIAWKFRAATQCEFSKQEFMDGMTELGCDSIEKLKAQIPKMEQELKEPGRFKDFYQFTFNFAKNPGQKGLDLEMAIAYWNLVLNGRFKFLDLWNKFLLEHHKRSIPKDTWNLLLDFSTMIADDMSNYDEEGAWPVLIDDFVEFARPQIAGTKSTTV

Compound	EC50 [µM]
CCN1C(=O)[C@@H](NC(=O)c2cccc(C)c2)[C@@H](c2ccc(F)cc2)c2c(CN)nn(-c3ccccc3)c21 [RG-0009512, N-[(4S,5S)-3-(aminomethyl)-7-ethyl-4-(4-fluorophenyl)-6-oxo-1-phenyl-1H,4H,5H,6H,7H-pyrazolo[3,4-b]pyridin-5-yl]-3-methylbenzamide]	0.171 ± 0.0179
CCN1C(=O)[C@@H](NC(=O)c2cccc(C(F)(F)F)c2)[C@@H](c2ccc(F)nc2)c2c(CN)nn(-c3ccccc3)c21 [RG-0014006, N-[(4S,5S)-3-(aminomethyl)-7-ethyl-4-(6-fluoropyridin-3-yl)-6-oxo-1-phenyl-1H,4H,5H,6H,7H-pyrazolo[3,4-b]pyridin-5-yl]-3-(trifluoromethyl)benzamide]	0.135 ± 0.007
CC(=O)NCN1C(=O)[C@@H](NC(=O)c2cccc(C(F)(F)F)c2)[C@@H](c2ccc(F)cc2)c2c(C)nn(-c3ccccc3)c21 [RG-0013840, N-[(4S,5S)-7-(acetamidomethyl)-4-(4-fluorophenyl)-3-methyl-6-oxo-1-phenyl-1H,4H,5H,6H,7H-pyrazolo[3,4-b]pyridin-5-yl]-3-(trifluoromethyl)benzamide]	> 36.5
CCN1C(=O)[C@@H](NC(=O)c2cccc(C(F)(F)F)c2)[C@@H](c2ccc(F)cc2)c2c(CNC(=O)CCOCCOCCOCCOCCNC(=O)CCCCC3SCC4NC(=O)NC43)nn(-c3ccccc3)c21 (stereo partly drawn) [RG-0014148, N-{[(4S,5S)-7-ethyl-4-(4-fluorophenyl)-6-oxo-1-phenyl-5-[3-(trifluoromethyl)benzamido]-1H,4H,5H,6H,7H-pyrazolo[3,4-b]pyridin-3-yl]methyl}-1-(5-{2-oxo-hexahydro-1H-thieno[3,4-d]imidazol-4-yl}pentanamido)-3,6,9,12-tetraoxapentadecan-15-amide]	0.102 ± 0.0159
C=CC(=O)NCc1nn(-c2ccccc2)c2c1[C@H](c1ccc(F)cc1)[C@H](NC(=O)c1cccc(C)c1)C(=O)N2CC [RG-0013063, N-[(4S,5S)-7-ethyl-4-(4-fluorophenyl)-6-oxo-1-phenyl-3-[(prop-2-enamido)methyl]-1H,4H,5H,6H,7H-pyrazolo[3,4-b]pyridin-5-yl]-3-methylbenzamide]	0.0968 ± 0.00721
CCN1C(=O)[C@@H](NC(=O)c2cc(C)cs2)[C@@H](c2ccc(F)cc2)c2c(C)nn(-c3ccccc3)c21 [RG-0014044, N-[(4S,5S)-7-ethyl-4-(4-fluorophenyl)-3-methyl-6-oxo-1-phenyl-1H,4H,5H,6H,7H-pyrazolo[3,4-b]pyridin-5-yl]-4-methylthiophene-2-carboxamide]	0.785 ± 0.0796
CCN1C(=O)[C@@H](NC(=O)c2cccc(C)c2)[C@@H](c2ccc(F)cc2)c2c(C)nn(C3CCCCC3)c21 [RG-0008877, N-[(4S,5S)-1-cyclohexyl-7-ethyl-4-(4-fluorophenyl)-3-methyl-6-oxo-1H,4H,5H,6H,7H-pyrazolo[3,4-b]pyridin-5-yl]-3-methylbenzamide]	0.835 ± 0.0348
CCN1C(=O)[C@@H](NC(=O)c2cccc(C(F)(F)F)c2)[C@@H](c2ccc(F)cc2)c2c(CNCC(F)(F)F)nn(-c3ccccc3)c21 [RG-0014145, N-[(4S,5S)-7-ethyl-4-(4-fluorophenyl)-6-oxo-1-phenyl-3-{[(2,2,2-trifluoroethyl)amino]methyl}-1H,4H,5H,6H,7H-pyrazolo[3,4-b]pyridin-5-yl]-3-(trifluoromethyl)benzamide]	0.161 ± 0.0131
CCN1C(=O)[C@@H](NC(=O)c2cccc(C(F)(F)F)c2)[C@@H](c2ccc(F)cc2)c2c(CN3CCNCC3)nn(-c3ccccc3)c21 [RG-0014141, N-[(4S,5S)-7-ethyl-4-(4-fluorophenyl)-6-oxo-1-phenyl-3-[(piperazin-1-yl)methyl]-1H,4H,5H,6H,7H-pyrazolo[3,4-b]pyridin-5-yl]-3-(trifluoromethyl)benzamide]	0.141 ± 0.00756
CCCN1CCN2C(=O)[C@@H](NC(=O)c3cccc(C)c3)[C@@H](c3ccc(F)cc3)C(C(C)=O)=C12 [RG-0008677, N-[(6S,7S)-8-acetyl-7-(4-fluorophenyl)-5-oxo-1-propyl-1H,2H,3H,5H,6H,7H-imidazo[1,2-a]pyridin-6-yl]-3-methylbenzamide]	5.79
CCN1C(=O)[C@@H](NC(=O)c2ccc(F)c(C)c2)[C@@H](c2ccc(F)cc2)c2c(C)nn(-c3ccccc3)c21 [RG-0014168, N-[(4S,5S)-7-ethyl-4-(4-fluorophenyl)-3-methyl-6-oxo-1-phenyl-1H,4H,5H,6H,7H-pyrazolo[3,4-b]pyridin-5-yl]-4-fluoro-3-methylbenzamide]	1.69 ± 0.115
CCN1C(=O)[C@@H](NC(=O)c2cccc(C(F)(F)F)c2)[C@@H](c2ccc(F)cc2)c2c(COC(C)=O)nn(-c3ccccc3)c21 [RG-0013839, [(4S,5S)-7-ethyl-4-(4-fluorophenyl)-6-oxo-1-phenyl-5-[3-(trifluoromethyl)benzamido]-1H,4H,5H,6H,7H-pyrazolo[3,4-b]pyridin-3-yl]methyl acetate]	0.116 ± 0.0132
Cc1cccc(C(=O)N[C@@H]2C(=O)N3CCCn4nc(C)c(c43)[C@@H]2c2ccc(F)cc2)c1 [RG-0008682, N-[(5S,6S)-5-(4-fluorophenyl)-3-methyl-7-oxo-1,2,8-triazatricyclo[6.3.1.0^4,^12]dodeca-2,4(12)-dien-6-yl]-3-methylbenzamide]	12.3
CCN1C(=O)[C@@H](NC(=O)c2cccc(C)c2)[C@@H](c2ccc(F)cc2)c2c(C)nn(C3CCCC3)c21 [RG-0008878, N-[(4S,5S)-1-cyclopentyl-7-ethyl-4-(4-fluorophenyl)-3-methyl-6-oxo-1H,4H,5H,6H,7H-pyrazolo[3,4-b]pyridin-5-yl]-3-methylbenzamide]	0.77 ± 0.0761
CCN1C(=O)[C@@H](NC(=O)c2cccc(C(F)(F)F)c2)[C@@H](c2ccc(F)cc2)c2c(CNC(=O)CC(C)C)nn(-c3ccccc3)c21 [RG-0014052, N-[(4S,5S)-7-ethyl-4-(4-fluorophenyl)-3-[(3-methylbutanamido)methyl]-6-oxo-1-phenyl-1H,4H,5H,6H,7H-pyrazolo[3,4-b]pyridin-5-yl]-3-(trifluoromethyl)benzamide]	0.114 ± 0.00867
CCN1C(=O)[C@@H](NC(=O)c2cccc(C(F)(F)F)n2)[C@@H](c2ccc(F)cc2)c2c(C)nn(-c3ccccc3)c21 [RG-0014061, N-[(4S,5S)-7-ethyl-4-(4-fluorophenyl)-3-methyl-6-oxo-1-phenyl-1H,4H,5H,6H,7H-pyrazolo[3,4-b]pyridin-5-yl]-6-(trifluoromethyl)pyridine-2-carboxamide]	1.11 ± 0.13
CCN1C(=O)[C@@H](NC(=O)c2cccc(C)c2)[C@@H](c2ccc(F)cc2)c2c(C)nn(C(C)C(F)(F)F)c21 (stereo partly drawn) [RG-0008879, N-[(4S,5S)-7-ethyl-4-(4-fluorophenyl)-3-methyl-6-oxo-1-(1,1,1-trifluoropropan-2-yl)-1H,4H,5H,6H,7H-pyrazolo[3,4-b]pyridin-5-yl]-3-methylbenzamide]	7.26 ± 1.09
Cc1cccc(C(=O)N[C@@H]2C(=O)N(C)c3c(c(C)nn3-c3ccccc3)[C@@H]2c2ccc(F)cc2)c1 [RG-0005655, N-[(4S,5S)-4-(4-fluorophenyl)-3,7-dimethyl-6-oxo-1-phenyl-1H,4H,5H,6H,7H-pyrazolo[3,4-b]pyridin-5-yl]-3-methylbenzamide]	0.446 ± 0.0681
CCN1C(=O)[C@@H](NC(=O)c2cccc(C(F)(F)F)c2)[C@@H](c2ccc(F)cc2)c2c(C)nn(-c3ccc(C)cc3)c21 [RG-0014036, N-[(4S,5S)-7-ethyl-4-(4-fluorophenyl)-3-methyl-1-(4-methylphenyl)-6-oxo-1H,4H,5H,6H,7H-pyrazolo[3,4-b]pyridin-5-yl]-3-(trifluoromethyl)benzamide]	3.21 ± 0.156
CCN1C(=O)[C@@H](NC(=O)c2cccc(C)c2)[C@@H](c2ccc(F)cc2)c2c(C)nn(C3CC3)c21 [RG-0008872, N-[(4S,5S)-1-cyclopropyl-7-ethyl-4-(4-fluorophenyl)-3-methyl-6-oxo-1H,4H,5H,6H,7H-pyrazolo[3,4-b]pyridin-5-yl]-3-methylbenzamide]	0.19 ± 0.0356
CCN1C(=O)[C@@H](NC(=O)c2cccc(C)c2)[C@@H](c2ccc(F)nc2)c2c(C)nn(-c3ccccc3)c21 [RG-0009513, N-[(4S,5S)-7-ethyl-4-(6-fluoropyridin-3-yl)-3-methyl-6-oxo-1-phenyl-1H,4H,5H,6H,7H-pyrazolo[3,4-b]pyridin-5-yl]-3-methylbenzamide]	0.255 ± 0.0282
CCOC1=Nc2c(c(C)nn2-c2ccccc2)[C@H](c2ccc(F)cc2)[C@@H]1NC(=O)c1cccc(C(F)(F)F)c1 [RG-0009518, N-[(4S,5S)-6-ethoxy-4-(4-fluorophenyl)-3-methyl-1-phenyl-1H,4H,5H-pyrazolo[3,4-b]pyridin-5-yl]-3-(trifluoromethyl)benzamide]	> 36.5
CCN1C(=O)[C@@H](NC(=O)c2cc(C)cc(F)c2)[C@@H](c2ccc(F)cc2)c2c(C)nn(-c3ccccc3)c21 [RG-0013053, N-[(4S,5S)-7-ethyl-4-(4-fluorophenyl)-3-methyl-6-oxo-1-phenyl-1H,4H,5H,6H,7H-pyrazolo[3,4-b]pyridin-5-yl]-3-fluoro-5-methylbenzamide]	2.33 ± 0.105
CCN1C(=O)[C@@H](NC(=O)c2cccc(C(F)(F)F)c2)[C@@H](c2ccc(F)cc2)c2c(CN3CCN(CC(F)(F)F)CC3)nn(-c3ccccc3)c21 [RG-0014150, N-[(4S,5S)-7-ethyl-4-(4-fluorophenyl)-6-oxo-1-phenyl-3-{[4-(2,2,2-trifluoroethyl)piperazin-1-yl]methyl}-1H,4H,5H,6H,7H-pyrazolo[3,4-b]pyridin-5-yl]-3-(trifluoromethyl)benzamide]	0.173 ± 0.0219
Cc1cccc(C(=O)N[C@@H]2C(=O)N(CC(F)(F)F)c3c(c(C)nn3-c3ccccc3)[C@@H]2c2ccc(F)cc2)c1 [RG-0009509, N-[(4S,5S)-4-(4-fluorophenyl)-3-methyl-6-oxo-1-phenyl-7-(2,2,2-trifluoroethyl)-1H,4H,5H,6H,7H-pyrazolo[3,4-b]pyridin-5-yl]-3-methylbenzamide]	7 ± 1.71
Cc1nn(-c2ccccc2)c2c1[C@H](c1ccc(F)cc1)[C@H](N(C)C(=O)c1cccc(C(F)(F)F)c1)C(=O)N2C [RG-0008886, N-[(4S,5S)-4-(4-fluorophenyl)-3,7-dimethyl-6-oxo-1-phenyl-1H,4H,5H,6H,7H-pyrazolo[3,4-b]pyridin-5-yl]-N-methyl-3-(trifluoromethyl)benzamide]	> 36.5
